From PubChem BioAssay (NCI)
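The compound was tested at five concentrations on cells cultured in 96-well plates, with a 48-hour exposure period. The concentration for full growth arrest is given as TGI.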

Key:
Assay in all cases: DTP human tumour cell line panel, 48 h
UACC-257 melanoma = tested on: UACC-257 melanoma
M19-MEL melanoma = tested on: M19-MEL melanoma
RXF-631 renal = tested on: RXF-631 renal
EKVX NSCLC = tested on: EKVX NSCLC
HT29 colon = tested on: HT29 colon
SF-268 CNS = tested on: SF-268 CNS
LXFL 529 NSCLC = tested on: LXFL 529 NSCLC
HOP-62 NSCLC = tested on: HOP-62 NSCLC
M14 melanoma = tested on: M14 melanoma
U251 CNS = tested on: U251 CNS
MOLT-4 leukemia = tested on: MOLT-4 leukemia
SK-MEL-2 melanoma = tested on: SK-MEL-2 melanoma
SNB-19 CNS = tested on: SNB-19 CNS
A549 NSCLC = tested on: A549 NSCLC
NCI-H226 lung = tested on: NCI-H226 lung
SF-539 CNS = tested on: SF-539 CNS
DMS 114 small cell lung = tested on: DMS 114 small cell lung
SF-295 CNS = tested on: SF-295 CNS
A498 renal = tested on: A498 renal
HCT-116 colon = tested on: HCT-116 colon
SK-MEL-5 melanoma = tested on: SK-MEL-5 melanoma
RXF 393 renal = tested on: RXF 393 renal
HCC-2998 colon = tested on: HCC-2998 colon
DLD-1 colon = tested on: DLD-1 colon
OVCAR-5 ovarian = tested on: OVCAR-5 ovarian
K-562 leukemia = tested on: K-562 leukemia
IGROV1 ovarian = tested on: IGROV1 ovarian
SN12C renal = tested on: SN12C renal
786-0 renal = tested on: 786-0 renal
SK-OV-3 ovarian = tested on: SK-OV-3 ovarian
SNB-75 CNS = tested on: SNB-75 CNS
UACC-62 melanoma = tested on: UACC-62 melanoma
UO-31 renal = tested on: UO-31 renal
NCI-H23 lung = tested on: NCI-H23 lung
HOP-92 NSCLC = tested on: HOP-92 NSCLC
OVCAR-8 ovarian = tested on: OVCAR-8 ovarian
NCI-H522 lung = tested on: NCI-H522 lung
CAKI-1 renal = tested on: CAKI-1 renal
COLO 205 colon = tested on: COLO 205 colon
LOX IMVI melanoma = tested on: LOX IMVI melanoma
NCI-H460 lung = tested on: NCI-H460 lung
ACHN renal = tested on: ACHN renal
CCRF-CEM leukemia = tested on: CCRF-CEM leukemia
TK-10 renal = tested on: TK-10 renal
XF 498 CNS = tested on: XF 498 CNS
SR leukemia = tested on: SR leukemia
HL-60(TB) leukemia = tested on: HL-60(TB) leukemia
MALME-3M melanoma = tested on: MALME-3M melanoma
OVCAR-3 ovarian = tested on: OVCAR-3 ovarian
RPMI-8226 leukemia = tested on: RPMI-8226 leukemia
DMS 273 small cell lung = tested on: DMS 273 small cell lung
HOP-18 NSCLC = tested on: HOP-18 NSCLC
HCT-15 colon = tested on: HCT-15 colon
KM12 colon = tested on: KM12 colon
SK-MEL-28 melanoma = tested on: SK-MEL-28 melanoma
OVCAR-4 ovarian = tested on: OVCAR-4 ovarian
KM20L2 colon = tested on: KM20L2 colon
SW-620 colon = tested on: SW-620 colon
SNB-78 CNS = tested on: SNB-78 CNS

`COC(=O)C(=O)C(C(=O)OC)C(=O)C(=O)Nc1cc(Cl)c(Cl)cc1Cl` (stereo not drawn) gave a TGI (UACC-257 melanoma) of over 100 µM, a TGI (M19-MEL melanoma) of over 100 µM and a TGI (RXF-631 renal) of over 100 µM. For the same compound, the TGI (EKVX NSCLC) was over 100 µM, the TGI (HT29 colon) was over 100 µM and the TGI (SF-268 CNS) was over 100 µM. For the same compound, the TGI (LXFL 529 NSCLC) was over 100 µM, the TGI (HOP-62 NSCLC) was over 100 µM and the TGI (M14 melanoma) was over 100 µM. The TGI (U251 CNS) was over 100 µM, the TGI (MOLT-4 leukemia) was over 100 µM and the TGI (SK-MEL-2 melanoma) was over 100 µM. It also gave a TGI (SNB-19 CNS) of over 100 µM, a TGI (A549 NSCLC) of over 100 µM and a TGI (NCI-H226 lung) of over 100 µM. It also gave a TGI (SF-539 CNS) of over 100 µM, a TGI (DMS 114 small cell lung) of 30.8 µM and a TGI (SF-295 CNS) of over 100 µM. The TGI (A498 renal) was over 100 µM, the TGI (HCT-116 colon) was 75.8 µM and the TGI (SK-MEL-5 melanoma) was over 100 µM. For the same compound, the TGI (RXF 393 renal) was over 100 µM, the TGI (HCC-2998 colon) was over 100 µM and the TGI (DLD-1 colon) was over 100 µM. It also gave a TGI (OVCAR-5 ovarian) of over 100 µM, a TGI (K-562 leukemia) of over 100 µM and a TGI (IGROV1 ovarian) of over 100 µM. It also gave a TGI (SN12C renal) of over 100 µM, a TGI (786-0 renal) of over 100 µM and a TGI (SK-OV-3 ovarian) of over 100 µM. For the same compound, the TGI (SNB-75 CNS) was over 100 µM, the TGI (UACC-62 melanoma) was over 100 µM and the TGI (UO-31 renal) was over 100 µM. For the same compound, the TGI (NCI-H23 lung) was over 100 µM, the TGI (HOP-92 NSCLC) was over 100 µM and the TGI (OVCAR-8 ovarian) was over 100 µM. The TGI (NCI-H522 lung) was over 100 µM, the TGI (CAKI-1 renal) was over 100 µM and the TGI (COLO 205 colon) was over 100 µM. For the same compound, the TGI (LOX IMVI melanoma) was over 100 µM, the TGI (NCI-H460 lung) was over 100 µM and the TGI (ACHN renal) was over 100 µM. For the same compound, the TGI (CCRF-CEM leukemia) was over 100 µM, the TGI (TK-10 renal) was over 100 µM and the TGI (XF 498 CNS) was over 100 µM. For the same compound, the TGI (SR leukemia) was 56.7 µM, the TGI (HL-60(TB) leukemia) was over 100 µM and the TGI (MALME-3M melanoma) was over 100 µM. It also gave a TGI (OVCAR-3 ovarian) of over 100 µM, a TGI (RPMI-8226 leukemia) of 60.3 µM and a TGI (DMS 273 small cell lung) of over 100 µM. For the same compound, the TGI (HOP-18 NSCLC) was over 100 µM, the TGI (HCT-15 colon) was over 100 µM and the TGI (KM12 colon) was over 100 µM. It also gave a TGI (SK-MEL-28 melanoma) of over 100 µM, a TGI (OVCAR-4 ovarian) of over 100 µM and a TGI (KM20L2 colon) of over 100 µM.
In the case of `COC(=O)[C@@]12C=CC(=O)[C@H]3C[C@@H](C(C(C)C)C1)[C@]32OC` (stereo partly drawn), the TGI (UACC-257 melanoma) is reported as over 100 µM, the TGI (M19-MEL melanoma) is reported as over 100 µM and the TGI (RXF-631 renal) is reported as over 100 µM. It also gave a TGI (SW-620 colon) of over 100 µM, a TGI (EKVX NSCLC) of over 100 µM and a TGI (HT29 colon) of over 100 µM. The TGI (SF-268 CNS) was over 100 µM, the TGI (LXFL 529 NSCLC) was over 100 µM and the TGI (HOP-62 NSCLC) was over 100 µM. It also gave a TGI (M14 melanoma) of over 100 µM, a TGI (U251 CNS) of over 100 µM and a TGI (MOLT-4 leukemia) of over 100 µM. The TGI (SK-MEL-2 melanoma) was over 100 µM, the TGI (SNB-19 CNS) was over 100 µM and the TGI (A549 NSCLC) was over 100 µM. For the same compound, the TGI (SF-539 CNS) was over 100 µM, the TGI (DMS 114 small cell lung) was over 100 µM and the TGI (SF-295 CNS) was over 100 µM. For the same compound, the TGI (A498 renal) was over 100 µM, the TGI (HCT-116 colon) was over 100 µM and the TGI (SK-MEL-5 melanoma) was over 100 µM. The TGI (RXF 393 renal) was over 100 µM, the TGI (HCC-2998 colon) was over 100 µM and the TGI (DLD-1 colon) was over 100 µM. For the same compound, the TGI (OVCAR-5 ovarian) was over 100 µM, the TGI (SNB-78 CNS) was over 100 µM and the TGI (K-562 leukemia) was over 100 µM. For the same compound, the TGI (IGROV1 ovarian) was over 100 µM, the TGI (SN12C renal) was over 100 µM and the TGI (786-0 renal) was over 100 µM. It also gave a TGI (SK-OV-3 ovarian) of over 100 µM, a TGI (SNB-75 CNS) of over 100 µM and a TGI (UACC-62 melanoma) of over 100 µM. The TGI (NCI-H23 lung) was over 100 µM, the TGI (HOP-92 NSCLC) was over 100 µM and the TGI (OVCAR-8 ovarian) was over 100 µM. It also gave a TGI (CAKI-1 renal) of over 100 µM, a TGI (COLO 205 colon) of over 100 µM and a TGI (NCI-H460 lung) of over 100 µM. The TGI (ACHN renal) was over 100 µM, the TGI (CCRF-CEM leukemia) was over 100 µM and the TGI (TK-10 renal) was over 100 µM. It also gave a TGI (XF 498 CNS) of over 100 µM, a TGI (HL-60(TB) leukemia) of over 100 µM and a TGI (MALME-3M melanoma) of over 100 µM. The TGI (OVCAR-3 ovarian) was over 100 µM, the TGI (RPMI-8226 leukemia) was over 100 µM and the TGI (DMS 273 small cell lung) was over 100 µM. The TGI (HOP-18 NSCLC) was over 100 µM, the TGI (HCT-15 colon) was over 100 µM and the TGI (KM12 colon) was over 100 µM. It also gave a TGI (SK-MEL-28 melanoma) of over 100 µM, a TGI (OVCAR-4 ovarian) of over 100 µM and a TGI (KM20L2 colon) of over 100 µM.
Compound `Cc1c(CC/C(=N\Nc2ccc([N+](=O)[O-])cc2[N+](=O)[O-])c2ccccc2)c2ccccc2n1C` has a TGI (UACC-257 melanoma) of over 100 µM, a TGI (M19-MEL melanoma) of over 100 µM and a TGI (RXF-631 renal) of over 100 µM. For the same compound, the TGI (SW-620 colon) was over 100 µM, the TGI (EKVX NSCLC) was over 100 µM and the TGI (HT29 colon) was over 100 µM. The TGI (SF-268 CNS) was over 100 µM, the TGI (LXFL 529 NSCLC) was over 100 µM and the TGI (HOP-62 NSCLC) was over 100 µM. For the same compound, the TGI (M14 melanoma) was over 100 µM, the TGI (U251 CNS) was over 100 µM and the TGI (MOLT-4 leukemia) was over 64.8 µM. For the same compound, the TGI (SK-MEL-2 melanoma) was over 100 µM, the TGI (SNB-19 CNS) was over 100 µM and the TGI (A549 NSCLC) was over 100 µM. The TGI (NCI-H226 lung) was over 100 µM, the TGI (SF-539 CNS) was over 100 µM and the TGI (DMS 114 small cell lung) was over 100 µM. The TGI (SF-295 CNS) was over 100 µM, the TGI (A498 renal) was over 100 µM and the TGI (HCT-116 colon) was over 100 µM. The TGI (SK-MEL-5 melanoma) was over 100 µM, the TGI (RXF 393 renal) was over 83.6 µM and the TGI (HCC-2998 colon) was over 100 µM. The TGI (DLD-1 colon) was over 100 µM, the TGI (OVCAR-5 ovarian) was over 100 µM and the TGI (SNB-78 CNS) was over 100 µM. It also gave a TGI (K-562 leukemia) of over 31.6 µM, a TGI (IGROV1 ovarian) of over 100 µM and a TGI (SN12C renal) of over 100 µM. For the same compound, the TGI (786-0 renal) was over 100 µM, the TGI (SK-OV-3 ovarian) was over 100 µM and the TGI (SNB-75 CNS) was over 100 µM. The TGI (UACC-62 melanoma) was over 100 µM, the TGI (UO-31 renal) was over 100 µM and the TGI (NCI-H23 lung) was over 100 µM. The TGI (HOP-92 NSCLC) was over 100 µM, the TGI (OVCAR-8 ovarian) was over 100 µM and the TGI (NCI-H522 lung) was over 100 µM. The TGI (CAKI-1 renal) was over 100 µM, the TGI (COLO 205 colon) was over 100 µM and the TGI (LOX IMVI melanoma) was over 100 µM. The TGI (NCI-H460 lung) was over 100 µM, the TGI (ACHN renal) was over 100 µM and the TGI (CCRF-CEM leukemia) was over 66.6 µM. For the same compound, the TGI (TK-10 renal) was over 100 µM, the TGI (XF 498 CNS) was over 100 µM and the TGI (HL-60(TB) leukemia) was over 81.2 µM. For the same compound, the TGI (MALME-3M melanoma) was over 100 µM, the TGI (OVCAR-3 ovarian) was over 100 µM and the TGI (RPMI-8226 leukemia) was over 100 µM. For the same compound, the TGI (DMS 273 small cell lung) was over 100 µM, the TGI (HCT-15 colon) was over 100 µM and the TGI (KM12 colon) was over 100 µM. For the same compound, the TGI (SK-MEL-28 melanoma) was over 100 µM, the TGI (OVCAR-4 ovarian) was over 100 µM and the TGI (KM20L2 colon) was over 100 µM.
